The values that follow come from patent US20240384268A1, “Oligonucleotides” (Hudson Institute of Medical Research, priority 2021, published 2024).

One data set has as its target T1, STING (Homo sapiens, UniProt Q86WV6).
T1 construct: host or cells: MG-63 (human osteosarcoma)
Description: STING agonist (GSK, DMXAA)-driven IP-10 in MG-63 cells and immortalised mouse BMDMs. It is filed as cell-based. As to conditions: C2-Mut1 500 nM 6 h (GSK 100 nM, DMXAA 50 μg/ml); MOE/LNA ASOs 1 mM as printed (GSK, MG-63).

Data set [1] addresses T2, cGAS (Homo sapiens, UniProt Q8N884). Description: ISD70-driven IP-10 production in MG-63 cells. It is filed as cell-based. More on the design: endogenous in cells.
The target in a further data set is T3, TLR3 (Homo sapiens, UniProt O15455).
T3 sequence (O15455 24-904): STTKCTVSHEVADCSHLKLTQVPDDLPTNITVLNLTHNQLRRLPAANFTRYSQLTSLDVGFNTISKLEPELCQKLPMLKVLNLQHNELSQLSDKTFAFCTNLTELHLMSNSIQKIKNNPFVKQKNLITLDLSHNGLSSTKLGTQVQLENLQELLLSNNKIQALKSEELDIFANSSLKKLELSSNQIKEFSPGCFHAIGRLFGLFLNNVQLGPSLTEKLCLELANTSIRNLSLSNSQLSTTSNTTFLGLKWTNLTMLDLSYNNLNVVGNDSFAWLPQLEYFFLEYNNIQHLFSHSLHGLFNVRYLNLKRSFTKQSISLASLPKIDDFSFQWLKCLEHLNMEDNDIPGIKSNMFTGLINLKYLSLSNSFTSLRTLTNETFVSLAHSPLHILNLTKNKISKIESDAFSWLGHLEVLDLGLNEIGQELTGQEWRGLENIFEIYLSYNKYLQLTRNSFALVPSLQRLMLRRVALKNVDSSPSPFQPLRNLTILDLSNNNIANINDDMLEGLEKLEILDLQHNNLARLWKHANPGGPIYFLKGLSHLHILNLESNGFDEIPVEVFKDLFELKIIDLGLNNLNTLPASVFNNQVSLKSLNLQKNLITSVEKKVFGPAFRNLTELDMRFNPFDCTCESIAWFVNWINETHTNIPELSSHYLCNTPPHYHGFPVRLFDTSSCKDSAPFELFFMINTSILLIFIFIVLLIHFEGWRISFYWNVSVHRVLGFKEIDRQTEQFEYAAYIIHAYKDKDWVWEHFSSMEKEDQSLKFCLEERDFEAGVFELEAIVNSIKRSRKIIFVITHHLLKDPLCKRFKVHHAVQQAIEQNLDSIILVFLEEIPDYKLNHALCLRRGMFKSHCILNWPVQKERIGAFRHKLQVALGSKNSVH
Description: pIC-driven IP-10 in MG-63 cells. The note with it: 1 mM ASO as printed, single preliminary experiment. Further details: host or cells: MG-63 (human osteosarcoma). It is filed as cell-based. On the procedure: FIG. 25: MG-63 were pre-treated for […] with […] indicated concentrations of ASOs (except for B3 and HPRT847Mut, used at 500 nM), prior to overnight transfection with ISD, stimulation with […] pIC or 100 nM GSK (Valentin et al., 2021). IP10 levels were measured and normalised to GSK only condition, after background correction. Data shown are from a single experiment in biological triplicate (+/−SEM).

Data set [2] addresses T2, cGAS. Briefly: ISD70-driven IP-10 (and IFN-β) production in THP-1 cells, ELISA. It is filed as cell-based. More on the design: endogenous in cells; host or cells: THP-1 (undifferentiated). As to conditions: THP-1. In general terms: An ELISA detects its analyte on a solid surface through an enzyme-linked reagent.
The target in data set [3] is cGAS (Mus musculus, UniProt Q8C6L5). Briefly: ISD-driven IP-10 production in immortalised mouse BMDMs. It is filed as cell-based. More on the design: endogenous in cells; host or cells: immortalised wild-type mouse bone marrow macrophages (iBMDMs). The note with it: iBMDMs, 500 nM ASO.
A further data set deals with T4, mouse cGAS (Mus musculus, UniProt Q8C6L5).
T4 construct: endogenous in cells; host or cells: LL171 (mouse L929 cells with ISRE-Luciferase)
Briefly: ISD45-driven ISRE-luciferase in mouse LL171 cells. It is filed as cell-based. The note with it: 2′OMe or PS oligos 50-600 nM, ISD45 2.5 μg/ml overnight. On the procedure:
In such examples, inhibition of cGAS activity can be identified by observation of an overall decreased cGAS response of the cell population, or a lower proportion of cells having cGAS-positive activity as compared to positive control condition in which cells are treated with cGAS agonist in the absence of the oligonucleotide (or in the presence of an appropriate control inhibitory agent). In one example, THP-1 or HT-29 cells are transfected with ISD70 and incubated with an oligonucleotide. cGAS activity can then be determined by cytokine (e.g., IP-10 and/or IFNβ) expression (e.g., gene and/or protein expression) and/or secretion levels, such as by ELISA. A similar assay can be performed with LL171 cells transfected with ISD45. […] By way of example, cGAS enzymatic activity may be assessed in vitro using recombinant cGAS and then measuring activity thereof by way of a cGAMP ELISA.
For cGAS stimulations, cells were treated for indicated duration with ASOs, prior to transfection with ISD70 (human cells) or ISD45 (mouse cells) (the ASOs were not washed off prior to ISD transfection unless otherwise indicated). The cGAS ligands ISD45 (Stetson and Medzhitov, 2006) and ISD70 (also known as VACV-70 (Unterholzner et al., 2010)) (Table 1) were resuspended as follows: 5 1d of sense and 5 μl of antisense strands at 10 μg/μl were added to 90 μl PBS under sterile conditions, heated at 75° C. for 30 min, prior to letting cool down at room temperature and aliquoting (stock at 1 μg/1 l). The ISDs were transfected at a concentration of […] at a ratio of 1 μg:1 μl with Lipofectamine 2000 in Opti-MEM (Thermo Fisher Scientific). HEK-TLR3, HEK-TLR7 and […] were treated with indicated concentration of ASOs for 20-50 min, prior to stimulation with poly(I:C) (Invivogen), R848 (Invivogen), Motolimod (MedChemExpress) and the Class B CpG oligonucleotides ODN 2006 (synthesised by IDT and resuspended in RNase-free TE buffer [Table 1]), respectively. The TLR2/1 agonist PAM3CSK4 (Invivogen), the TLR4 agonist lipopolysaccharide (Invivogen), the Class B CpG oligonucleotides ODN 1826 (synthesised by IDT and resuspended in RNase-free TE buffer), the mouse Sting agonist DMXAA (Cayman) and the human STING agonist (compound #3 from (Raanjulu et al., 2018), referred to as GSK herein—kind gift from Cancer Therapeutics CRC, Australia) were used at indicated concentrations. Aspirin (Sigma—A2093) was resuspended in pure medium to 10 mM, filter sterilised and added to the cells at 2 mM final. All ASOs were synthesised by Integrated DNA Technologies (IDT), and resuspended in RNase-free TE buffer, pH 8.0 (Thermo Fisher Scientific). Cell viability was assessed by adding 1× fresh resazurin solution to the wells (10λ solution made up with 7 mg resazurin [Sigma—R7017] dissolved in 3.5 ml PBS, sterile filtered at […]) for 4 h, prior to reading at with a Fluostar OPTIMA (BMG LABTECH) plate-reader (fluorescence: Excitation 535 nm, Emission 590); wells with medium only and 1× resazurin were used as blanks.
Following transfection, the cells were collected from the 6-wells and aliquoted into 96-wells, just before ASO and overnight TLR stimulation (as above described).

For the next data set, the system named is HPRT. Briefly: HPRT mRNA levels in SV40T hTERT fibroblasts, RT-qPCR. It is filed as cell-based, human. The note with it: 100 nM ASO transfected overnight. A general note: In qPCR the cycle at which signal appears reflects the starting amount.
Data set [4] addresses T2, cGAS. Description: IFN-driven gene expression in BJ hTERT SV40T fibroblasts (constitutive cGAS activation), RT-qPCR. As to conditions: ASO transfected 20-100 nM overnight.
The test system of a further data set is HT-29 cells. Briefly: Uptake of Cy3-labelled ASO in HT-29 cells, fluorescent microscopy. It is filed as cell-based, human. As to conditions: 500 nM ASO2-Cy3, no transfection. On the procedure:
FIG. 7. HT-29 were incubated with 500 nM ASO2-Cy3, prior to ISD70+lipofectamine transfection or not, for 4 h. The cells were subsequently washed with PBS prior to imaging by inverted fluorescent microscopy. The images shown are representative of two independent experiments.

l = locked nucleic acid (LNA); {Cy3} = Cy3 dye moiety; d = 2'-deoxy (DNA); m = 2'-O-methyl

T2 sequence (Q8N884 whole entry): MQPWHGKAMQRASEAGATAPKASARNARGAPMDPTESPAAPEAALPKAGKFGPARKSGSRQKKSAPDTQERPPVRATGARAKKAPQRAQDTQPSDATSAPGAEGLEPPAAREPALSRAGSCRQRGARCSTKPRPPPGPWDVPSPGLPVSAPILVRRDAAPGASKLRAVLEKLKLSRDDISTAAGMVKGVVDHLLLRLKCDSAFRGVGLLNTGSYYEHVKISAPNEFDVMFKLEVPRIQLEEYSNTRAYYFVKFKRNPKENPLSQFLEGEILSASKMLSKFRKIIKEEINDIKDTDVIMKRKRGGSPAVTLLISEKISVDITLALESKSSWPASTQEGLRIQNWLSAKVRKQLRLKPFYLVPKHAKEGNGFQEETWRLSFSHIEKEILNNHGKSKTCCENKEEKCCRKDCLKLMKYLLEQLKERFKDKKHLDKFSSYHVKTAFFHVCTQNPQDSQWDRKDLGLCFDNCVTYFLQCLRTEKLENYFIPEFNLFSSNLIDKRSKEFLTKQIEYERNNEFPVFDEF
cGAS (Mus musculus, UniProt Q8C6L5), sequence (Q8C6L5 whole entry): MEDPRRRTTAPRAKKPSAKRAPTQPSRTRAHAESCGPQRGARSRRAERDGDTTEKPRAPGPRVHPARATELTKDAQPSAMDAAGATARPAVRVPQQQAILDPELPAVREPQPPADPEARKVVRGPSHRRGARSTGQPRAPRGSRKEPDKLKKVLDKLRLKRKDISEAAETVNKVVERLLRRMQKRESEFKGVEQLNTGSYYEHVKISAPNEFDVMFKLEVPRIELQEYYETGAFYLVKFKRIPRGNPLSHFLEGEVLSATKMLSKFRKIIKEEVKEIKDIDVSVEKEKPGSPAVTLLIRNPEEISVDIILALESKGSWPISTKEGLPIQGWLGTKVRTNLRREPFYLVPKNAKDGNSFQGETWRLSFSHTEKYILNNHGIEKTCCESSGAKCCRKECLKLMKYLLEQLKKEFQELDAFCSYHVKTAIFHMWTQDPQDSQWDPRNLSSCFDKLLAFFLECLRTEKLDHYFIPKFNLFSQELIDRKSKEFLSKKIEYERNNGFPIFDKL
T4 sequence (Q8C6L5 whole entry): as above
T1 sequence (Q86WV6 whole entry): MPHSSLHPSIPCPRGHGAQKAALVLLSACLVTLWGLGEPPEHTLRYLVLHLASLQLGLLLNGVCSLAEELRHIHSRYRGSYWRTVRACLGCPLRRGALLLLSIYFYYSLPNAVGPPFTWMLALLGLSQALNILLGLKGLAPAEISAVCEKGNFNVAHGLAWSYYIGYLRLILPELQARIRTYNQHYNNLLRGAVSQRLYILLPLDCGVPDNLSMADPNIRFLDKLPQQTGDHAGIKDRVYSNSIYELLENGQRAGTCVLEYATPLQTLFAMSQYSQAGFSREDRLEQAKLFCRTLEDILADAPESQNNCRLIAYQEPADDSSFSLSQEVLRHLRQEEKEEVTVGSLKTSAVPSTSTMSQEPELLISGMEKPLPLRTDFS

On to “+C*+G*+C*T*T*T*T*C*T*C*T*C*C*+G*+G*+T (CGCTTTTCTCTCCGGT; sugars from the 5' end l3 d10 l3, all phosphorothioate, methylation of C not given here) [A1-Mut]”, for which, in the data set with STING, the “IP-10 production driven by STING synthetic agonists (in words)” value is on record as “not that driven by direct stimulation of STING”. Further, the “IP-10 driven by ISD in MG-63, higher dose (in words)” value with cGAS [1] (1 mM ASO as printed, single preliminary experiment (FIG. 25)) is given as “only reduced IP-10 driven by ISD”. Also, in the data set with cGAS [1] (indicated concentrations up to 500 nM, ~30 min, ISD overnight (FIG. 24)), the “IP-10 after ISD in MG-63, MOE and LNA ASOs (in words)” value is “significantly reduced IP-10 levels”. Moreover, the “IP-10 driven by TLR3 engagement with polyI:C in MG-63 (in words)” value with TLR3 is on record as “only reduced IP-10 driven by ISD”. Also, in the data set with cGAS [2] (~30 min pre-treatment, ISD70 overnight (FIG. 27), read-out: IC50 (IP-10 after ISD70 transfection), MOE and LNA ASOs), the IC50 was found to be 75 nM. Besides, the “ISD-induced IP-10 in immortalised mouse BMDMs (in words)” value in the data set with cGAS [3] (ISD overnight) was “did not significantly potentiate IP-10 production”. Moreover, the “IP-10 induced by the ASO transfected alone, no ISD (in words)” value with cGAS [3] (lipofectamine only (Mock)) was “induced low level IP-10”.
Consider “mG*mG*mU* mA*mU*mA* mG*mG*A* C*T*C* C*A*G* A*T*G* mU*mU*mU* mC*mC [HPRT-2OMe-847-Mut1]”, for which, at mouse cGAS, the “inhibition of ISD45-driven ISRE-luciferase (in words)” value is given as “better inhibitor against mouse cGAS activation”. Also, the “HPRT mRNA levels (in words)” value in the data set with HPRT is recorded as “still able to reduce HPRT levels”. The “inhibition of ISD sensing in MG-63, 2′OMe ASOs (in words)” value against cGAS [1] (C2-Mut1 500 nM 6 h, or ASO847 series ~30 min, ISD70 overnight) is “much better inhibitor of cGAS”. Also, on cGAS [2] (2′OMe or PS oligos, 100-250 nM, pre-treatment as in figure legends, ISD70 2.5 μg/ml), the “inhibition of ISD70-driven IP-10 production (in words)” value is reported as “much better inhibitor of cGAS”. On cGAS [4], the “inhibition of constitutively expressed ISGs (IFIT1, IFIT2, IFI44; in words)” value was “as potent as C2-Mutl”.
With “mU*mC*mC*mG*mG*C*C*T*C*G*G*A*A*G*C*mU*mC*mU*mC*mU/3Cy3Sp/ (DNA UCCGGCCTCGGAAGCUCUCU; sugars from the 5' end m5 d10 m5, all phosphorothioate, 3' {Cy3}, methylation of C not given here) [ASO2-Cy3]”, in the data set on HT-29 cells, the “uptake by cells (in words)” value was “spontaneous uptake”.

Broadly, the IC50 is the concentration that gives 50% inhibition.
